The record followed here is PubChem BioAssay AID330 (DTP/NCI, 2004).

“And” between values parts separate entries of the source, which are not always exact repeats. Identical values can stand only once. Toxic doses and inconclusive results are not listed.

The test system of the test is P388 leukemia ip, CD2F1 mice, survival T/C. The test can be described thus: NCI In Vivo Anticancer Drug Screen. Data for tumor model P388 Leukemia (intraperitoneal) in CD2F1 (CDF1) mice. Particulars: endpoint: median survival time, higher = longer survival. The method in brief:
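Mice carrying the transplanted tumor received test compound or vehicle. Survival was recorded in each group, and the value is the treated-group measurement divided by that of the vehicle-treated control group.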

[1] abbreviates: dose: 50.0 mg/kg/injection, schedule: Q01DX005 (ip), vehicle: Klucel (hydroxypropylcellulose) (HPC).
[2] abbreviates: dose: 100.0 mg/kg/injection, schedule: Q01DX005 (ip), vehicle: Klucel (hydroxypropylcellulose) (HPC).
The mark [3] stands for this setting: dose: 200.0 mg/kg/injection, schedule: Q01DX005 (ip), vehicle: Klucel (hydroxypropylcellulose) (HPC).
Where [4] appears, read: dose: 50.0 mg/kg/injection, schedule: Q01DX009 (ip), vehicle: saline with Tween-80.
[5] abbreviates: dose: 50.0 mg/kg/injection, schedule: Q01DX005 (ip), vehicle: saline with Tween-80.
Setting [6] is: dose: 100.0 mg/kg/injection, schedule: Q01DX005 (ip), vehicle: saline with Tween-80.
Where [7] appears, read: dose: 200.0 mg/kg/injection, schedule: Q01DX005 (ip), vehicle: saline with Tween-80.

Take `COc1ccc(C(C)c2cc3c(cc2OC)OCO3)cc1C` (stereo not drawn): the T/C (dose: 25.0 mg/kg/injection, schedule: Q01DX005 (ip), vehicle: Klucel (hydroxypropylcellulose) (HPC)) was 104 % of control and 105 % of control; the T/C under setting [1] is 100 % of control and 109 % of control and 120 % of control; the T/C under setting [2] was 98 % of control and 105 % of control and 111 % of control; the T/C under setting [3] was 100 % of control and 110 % of control and 120 % of control; the T/C (dose: 400.0 mg/kg/injection, schedule: Q01DX005 (ip), vehicle: Klucel (hydroxypropylcellulose) (HPC)) was 100 % of control.
As for `CN=C(NCCc1ccccc1)c1ccc(NC(=O)c2ccc(C(=O)Nc3ccc(C(=NC)NCCc4ccccc4)cc3)cc2)cc1`, the T/C by setting is: (dose: 3.12 mg/kg/injection, schedule: Q01DX005 (ip), vehicle: Klucel (hydroxypropylcellulose) (HPC)) 114 % of control; (dose: 6.25 mg/kg/injection, schedule: Q01DX005 (ip), vehicle: Klucel (hydroxypropylcellulose) (HPC)) 116 % of control and 122 % of control; (dose: 12.5 mg/kg/injection, schedule: Q01DX005 (ip), vehicle: Klucel (hydroxypropylcellulose) (HPC)) 154 % of control.
As for `COc1c(Br)cc(Br)cc1/C=C/[N+](=O)[O-]`, the T/C under setting [4] was 123 % of control.
As for `NC(=O)c1cc(Cl)nc2nc(Cl)nc(N)c12`, the T/C is 105 % of control under setting [5]; 101 % of control (dose: 50.0 mg/kg/injection, schedule: Q04DX003 (ip), vehicle: saline with Tween-80); 105 % of control under setting [6]; 100 % of control and 114 % of control (dose: 100.0 mg/kg/injection, schedule: Q04DX003 (ip), vehicle: saline with Tween-80); 108 % of control under setting [7]; 106 % of control (dose: 200.0 mg/kg/injection, schedule: Q04DX003 (ip), vehicle: saline with Tween-80). The T/C runs as follows: (dose: 400.0 mg/kg/injection, schedule: Q01DX005 (ip), vehicle: saline with Tween-80) 112 % of control; (dose: 400.0 mg/kg/injection, schedule: Q04DX003 (ip), vehicle: saline with Tween-80) 110 % of control and 111 % of control.
In the case of `C=C[C@@](C)(O)CC/C=C(/C)CCC=C(C)C`, the T/C reads like this: (dose: 25.0 mg/kg/injection, schedule: Q01DX009 (ip), vehicle: saline with Tween-80) 110 % of control; under setting [4], 110 % of control; (dose: 100.0 mg/kg/injection, schedule: Q01DX009 (ip), vehicle: saline with Tween-80) 110 % of control; (dose: 100.0 mg/kg/injection, schedule: Q04DX003 (ip), vehicle: saline) 109 % of control; (dose: 200.0 mg/kg/injection, schedule: Q04DX003 (ip), vehicle: saline) 100 % of control; (dose: 400.0 mg/kg/injection, schedule: Q04DX003 (ip), vehicle: saline) 113 % of control.
For the compound `CCn1c2ccccc2c2cc(N=Nc3cc(N)ccc3N(C)C)ccc21`, the T/C was 87 % of control under setting [5], 87 % of control under setting [6] and 87 % of control under setting [7].
For the compound `CC(CC1CCCCC1)NCCC(c1ccccc1)c1ccccc1` (stereo not drawn), the T/C by setting is: (dose: 12.5 mg/kg/injection, schedule: Q01DX009 (ip), vehicle: Klucel (hydroxypropylcellulose) (HPC)) 116 % of control; (dose: 25.0 mg/kg/injection, schedule: Q01DX009 (ip), vehicle: Klucel (hydroxypropylcellulose) (HPC)) 100 % of control.
As for `CSC(=S)N/N=C(\C)c1cccc(C)n1`, the T/C was 100 % of control (dose: 7.5 mg/kg/injection, schedule: Q01DX005 (ip), vehicle: saline with Tween-80); 102 % of control (dose: 15.0 mg/kg/injection, schedule: Q01DX005 (ip), vehicle: saline with Tween-80); 105 % of control (dose: 30.0 mg/kg/injection, schedule: Q01DX005 (ip), vehicle: saline with Tween-80); 100 % of control (dose: 60.0 mg/kg/injection, schedule: Q01DX005 (ip), vehicle: saline with Tween-80); 87 % of control (dose: 120.0 mg/kg/injection, schedule: Q01DX005 (ip), vehicle: saline with Tween-80); 113 % of control (dose: 240.0 mg/kg/injection, schedule: Q01DX005 (ip), vehicle: saline with Tween-80).
Take `N=C(N)c1ccc(N=Nc2cc(N=Nc3ccc(C(=N)N)cc3)c(O)cc2O)cc1`: the T/C by setting is: under setting [1], 92 % of control; under setting [2], 92 % of control; under setting [3], 100 % of control.
As to `O=C1C=C(Nc2ccccc2C(=O)O)C(=O)C=C1Nc1ccccc1C(=O)O`, the T/C was 107 % of control (dose: 50.0 mg/kg/injection, schedule: Q01DX009 (ip), vehicle: Klucel (hydroxypropylcellulose) (HPC)); 110 % of control (dose: 100.0 mg/kg/injection, schedule: Q01DX009 (ip), vehicle: Klucel (hydroxypropylcellulose) (HPC)); 113 % of control (dose: 200.0 mg/kg/injection, schedule: Q01DX009 (ip), vehicle: Klucel (hydroxypropylcellulose) (HPC)).
On to `CC(=O)OCC1CN2CC1(c1ccccc1)C(=O)NC2=O` (stereo not drawn), for which the T/C runs as follows: (dose: 100.0 mg/kg/injection, schedule: Q01DX001 (ip), vehicle: saline) 102 % of control; (dose: 200.0 mg/kg/injection, schedule: Q01DX001 (ip), vehicle: saline) 102 % of control; (dose: 400.0 mg/kg/injection, schedule: Q01DX001 (ip), vehicle: saline) 100 % of control.
